Reference: patent US20210346425A1, “BOTANICAL FILM-FORMING ACNE COMPOSITIONS” (priority 2018, published 2021)

Assays:
S. aureus = test: Rapid kill (15 seconds) suspension test, ASTM E2783-11; format: cell-based; conditions: 15 seconds contact, ingredient in FGZ gel, log 10 reduction of 3.0 or higher counts as effective
Procedure: Table 2: Antibacterial Activity (Rapidity of Kill Test Organism S. aureus)
Rapid kill (15 seconds) test tube method described in ASTM-E2783-1198751-1 (suspension test).
In vitro rapid-kill test was carried out according to ASTM E2783-11; 10^8 CFU mL^−1 microbial cultures were prepared in a TSA media in order to determine the antimicrobial activity of acne formulations. 0.9 mL acne formulation was kept in contact with 0.1 mL microbial cultures for 15 seconds and subsequently neutralized using agent DE. PBS was used as a control.

[1] = Zone of inhibition test of salicylic acid and botanicals in FGZ base; format: cell-based; conditions: ingredients in FGZ base; test organism not given
Procedure: Various botanicals, salicylic acid and combinations were mixed in FGZ gel and antibacterial efficacy was evaluated.
Table 1: Antibacterial Activity of Salicylic Acid and Botanicals in FGZ Base (Zone of Inhibition Test)

## O=C(O)c1ccccc1O [Salicylic acid 2%, Salicylic acid]
S. aureus
  Log reductrion from control growth: 2.1
[1]
  Zone of inhibition (mm): 1 mm

## [H]/N=C(\N/C(=N/[H])NCCCCCCNC(=N)NC(=N)Nc1ccc(Cl)cc1)Nc1ccc(Cl)cc1 [chlorhexidine gluconate]
S. aureus
  Log reductrion from control growth: 0.2
